From patent publication US20230357162A1, “COMPOUNDS, COMPOSITIONS AND METHODS” (Denali Therapeutics Inc., priority 2020, published 2023)

Tested on: IL-1β secretion, THP-1 cells
Assay: IL-1β secretion assay in PMA-differentiated THP-1 cells stimulated with LPS and nigericin (ELISA readout)
Assay type: cell-based
Details: Homo sapiens, THP-1, inhibition of IL-1β secretion, 25 ng/mL LPS then nigericin
Description: Compounds as provided herein were tested in the following assay. Cell culture medium employed contained RPMI 1640 medium (89%), FBS (10%), Pen/Strep (1%), and 2-mercaptoethanol (0.05 mM). Freezing medium was made up of 90% FBS and 10% DMSO. THP-1 cells were removed from the liquid nitrogen and placed into a 37° C. water bath to thaw, until signs of ice dissipated. The cells were then added to 9 mL of warm cell culture medium and centrifuged for 5 minutes at 1000 rpm. The supernatant was discarded, and the cells were resuspended in new cell culture medium. THP-1 cells were then split and cultured in the cell culture medium, being passaged every 2-3 days with the cell density will be maintained between 5×10^5 and 1.5×10^6 viable cells/mL.
PMA was dissolved in DMSO to make a stock solution at 5 mg/ml and stored in 10 µl aliquots at -20° C. for single use. PMA is added to normal growth medium. LPS was diluted with 1 mL of water solution to provide a 1 mg/mL stock solution and stored in 15 µl aliquots at -20° C. for single use. Nigericin is diluted in ice cold 100% ethanol to 5 mg/ml (6.7 mM) and stored in 75 µL aliquots at -20° C. for single use. Serum-free media contains RPMI 1640 medium (99%), Pen/Strep (1%), and 2-mercaptoethanol (0.05 mM). The two control conditions used to qualify and normalize test compound dose-response curves were as follows: High Control = 25 ng/mL LPS, 5 µM Nigericin, 0.5% DMSO, Low Control = 25 ng/mL, LPS, 0.5% DMSO.
THP-1 cells were diluted to provide a suspension at a concentration of 1.0×10^6 cells/mL with the total volume of suspension required to enable the desired number of assay plates. The growth media was supplemented with PMA (5 ng/mL final concentration) and the cells were incubated at 37° C. under a humidified atmosphere of 5% CO2 for 40 h.
All media was carefully aspirated from each culture flask. The cells were washed carefully with 1x DPBS. The cells were then briefly digested with trypsin LE for 5 minutes at 23° C. and immediately resuspended in cell growth media. After resuspension, the cells were centrifuged at 1000 rpm for 3 minutes and the supernatant was discarded. The cells were resuspended in DPBS and once again centrifuged at 1000 rpm for 5 minutes. The supernatant was discarded and the cell pellet was resuspended in serum-free media supplemented with LPS (25 ng/mL final concentration) to enable the distribution of 30 K THP-1 cells within 45 µL of media into each well of 384-well PDL-coated plates. The 384-well plates were then incubated at 37° C. under a humidified atmosphere of 5% CO2 for 2 h. Following this period, test compounds were dispensed by Tecan across the desired concentration range with all wells normalized to a final 0.5 % DMSO concentration. The plates were then then incubated at 37° C. under a humidified atmosphere of 5% CO2 for 1 h. Following this period, 5 µL of the […] nigericin stock solution was added to each of the appropriate wells and plates were centrifuged at 1000 rpm for 30 seconds. The plates were the immediately reintroduced to the incubator at 37° C. under a humidified atmosphere of 5% CO2 for 2 h. After this time, 35 µL/well of supernatant was collected and transferred into v-bottom plate and centrifuged at 1000 rpm for 1 minute. These supernatant aliquots were analyzed using an IL-Iβ detection kit as described below. If needed, the test samples could be snap frozen and stored at -80° C. until analyzed.
To prepare each ELISA plate, capture antibody (mAb Mt175) was diluted with PBS to a final concentration of 2 µg/mL and then 20 µL of this solution was added to each well of the ELISA plate. Each plate was allowed to incubate overnight at 4° C. The next day, the capture antibody solution was removed and discarded. Each ELISA plate was washed 4 times with PBST followed by the addition of 25 µL/well of blocking buffer (Licor-927-40010) supplemented with 0.1% Tween 20. Each ELISA plate was then allowed to incubate for 1 hour at 23° C. […]

Row | Compound | IC50 (class column of Table 3) | IC50 (numeric column of Table 3)
1 | CC(O)c1nn(CC(=O)Nc2ncccn2)c(=O)c2ccc(Br)cc12 (single isomer, unassigned) [Example 101, 2-(6-bromo-4-(1-hydroxyethyl)-1-oxophthalazin-2(1H)-yl)-N-(pyrimidin-2-yl)acetamide] | < 10 µM | 1.45 µM
2 | Cc1ncc(F)c(NC(=O)Cn2nc(C(C)C)c3cc(Br)ccc3c2=O)n1 [Example 31, 2-(6-bromo-1-oxo-4-propan-2-ylphthalazin-2-yl)-N-(5-fluoro-2-methylpyrimidin-4-yl)acetamide] | < 10 µM | 1.32 µM
3 | CC(C)c1nn(CC(=O)NC2CC3(COC3)C2)c(=O)c2ccc(Br)cc12 [Example 54, 2-(6-bromo-1-oxo-4-propan-2-ylphthalazin-2-yl)-N-(2-oxaspiro[3.3]heptan-6-yl)acetamide] | < 10 µM | 0.349 µM
4 | CC(C)c1nn(CC(=O)NCC2CCCOC2)c(=O)c2ccc(Br)cc12 (stereo not drawn) [Example 57, 2-(6-bromo-1-oxo-4-propan-2-ylphthalazin-2-yl)-N-(oxan-3-ylmethyl)acetamide] | < 10 µM | 4.4 µM
5 | O=C(Cn1nc(OC(F)(F)F)c2cc(Br)ccc2c1=O)Nc1ncncc1F [Example 82] | < 10 µM | 1.48 µM
6 | O=C(Cn1nc(Br)c2cc(Br)ccc2c1=O)Nc1ncc(F)cn1 [Example 181, 2-(4,6-Dibromo-1-Oxophthalazin-2-yl)-N-(5-Fluoropyrimidin-2-yl)Acetamide] | < 10 µM | 0.23 µM
7 | CC(C)c1nn(CC(=O)NCC2CCOC2)c(=O)c2ccc(Br)cc12 (stereo not drawn) [Example 75, 2-(6-bromo-1-oxo-4-propan-2-ylphthalazin-2-yl)-N-(oxolan-3-ylmethyl)acetamide] | < 10 µM | 2.85 µM
8 | O=C(Cn1nc(OC(F)C2CC2)c2cc(Br)ccc2c1=O)Nc1ncc(F)cn1 (stereo not drawn) [Example 168, 2-[6-bromo-4-[cyclopropyl(fluoro)methoxy]-1-oxophthalazin-2-yl]-N-(5-fluoropyrimidin-2-yl)acetamide] | > 15 µM | 17.1 µM

Continued, values first:

Row | IC50 (class column of Table 3) | IC50 (numeric column of Table 3) | Compound
9 | < 10 µM | 0.614 µM | O=C(Cn1nc(C(F)F)c2nc(C(F)(F)F)ccc2c1=O)Nc1ncc(F)cn1 [Example 105, 2-[8-(difluoromethyl)-5-oxo-2-(trifluoromethyl)pyrido[2,3-d]pyridazin-6-yl]-N-(5-fluoropyrimidin-2-yl)acetamide]
10 | < 10 µM | 9.63 µM | CC(C)c1nn(CC(=O)N2CCCc3ccccc32)c(=O)c2ccc(Br)cc12 [Example 73, 6-bromo-2-[2-(3,4-dihydro-2H-quinolin-1-yl)-2-oxoethyl]-4-propan-2-ylphthalazin-1-one]
11 | < 10 µM | 1.06 µM | CC(C)c1nn(CC(=O)Nc2ncncc2F)c(=O)c2ccc(C(F)F)cc12 [Example 21, 2-[6-(difluoromethyl)-1-oxo-4-propan-2-ylphthalazin-2-yl]-N-(5-fluoropyrimidin-4-yl)acetamide]
12 | < 10 µM | 0.054 µM | CC(C)c1nn(CC(=O)Nc2ncccn2)c(=O)c2ccc(Br)cc12 [Example 39, 2-(6-bromo-1-oxo-4-propan-2-ylphthalazin-2-yl)-N-pyrimidin-2-ylacetamide]
13 | < 10 µM | 2.09 µM | O=C(Cn1nc(C(F)F)c2c(F)c(C3CCC3)ccc2c1=O)Nc1ncc(F)cn1 [Example 185, 2-[6-cyclobutyl-4-(difluoromethyl)-5-fluoro-1-oxophthalazin-2-yl]-N-(5-fluoropyrimidin-2-yl)acetamide]
14 | 10 to 15 µM | 12.3 µM | CC(C)c1nn(CC(=O)NC2(C)CCOCC2)c(=O)c2ccc(Br)cc12 [Example 44, 2-(6-bromo-1-oxo-4-propan-2-ylphthalazin-2-yl)-N-(4-methyloxan-4-yl)acetamide]
15 | < 10 µM | 0.176 µM | CC(C)c1nn(CC(=O)Nc2ccncn2)c(=O)c2ccc(Br)cc12 [Example 33, 2-(6-bromo-1-oxo-4-propan-2-ylphthalazin-2-yl)-N-pyrimidin-4-ylacetamide]
